Assays:
Substance-K receptor = molecular target: T1, Substance-K receptor (Homo sapiens, UniProt P21452); experiment: Displacement of [3H]neurokinin A from human NK2 receptor
T1 sequence (P21452 whole entry): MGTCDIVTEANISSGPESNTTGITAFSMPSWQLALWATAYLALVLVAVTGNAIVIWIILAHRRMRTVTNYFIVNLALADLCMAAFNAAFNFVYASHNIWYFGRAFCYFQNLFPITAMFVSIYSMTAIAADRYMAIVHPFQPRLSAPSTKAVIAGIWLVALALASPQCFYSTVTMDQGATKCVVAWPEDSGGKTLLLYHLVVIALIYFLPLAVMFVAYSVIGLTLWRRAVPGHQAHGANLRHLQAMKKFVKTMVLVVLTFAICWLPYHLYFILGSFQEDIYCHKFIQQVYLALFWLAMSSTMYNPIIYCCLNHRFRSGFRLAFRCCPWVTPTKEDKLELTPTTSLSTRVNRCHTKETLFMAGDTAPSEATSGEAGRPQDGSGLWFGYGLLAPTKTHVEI

Cavia porcellus = experiment: Inhibition of [beta-Ala8]NKA(4-10)-induced colonic contractions in Dunkin-Hartley guinea pig at 3 umol/kg, iv after 4 hrs relative to control; type: functional
[1] = molecular target: T2, Substance-K receptor (Cavia porcellus) (UniProt Q64077); experiment: Antagonist activity at NK2 receptor in Dunkin-Hartley guinea pig colon smooth muscle assessed as inhibition of [beta-Ala8]NKA(4-10)-induced tissue contraction in presence of NK1 receptor antagonist SR-140333; type: functional, tissue-based
T2 sequence (whole entry): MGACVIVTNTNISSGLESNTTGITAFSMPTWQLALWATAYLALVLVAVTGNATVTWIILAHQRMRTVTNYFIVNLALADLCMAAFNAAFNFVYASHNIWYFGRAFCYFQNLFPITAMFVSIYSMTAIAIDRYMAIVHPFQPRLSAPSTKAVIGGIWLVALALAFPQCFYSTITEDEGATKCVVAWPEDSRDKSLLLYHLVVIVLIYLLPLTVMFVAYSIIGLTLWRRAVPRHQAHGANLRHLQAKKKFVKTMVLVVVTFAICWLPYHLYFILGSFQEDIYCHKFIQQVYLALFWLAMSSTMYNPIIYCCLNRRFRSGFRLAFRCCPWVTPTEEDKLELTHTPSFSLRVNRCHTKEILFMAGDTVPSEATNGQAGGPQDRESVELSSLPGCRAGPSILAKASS

Compound	Ki (Substance-K receptor) [nM]	Imax (Cavia porcellus) [%]	pKb [1]
Cc1ccc2cc(C(=O)NC3(C(=O)N[C@@H](CCCN4CCN(Cc5nnn(C)n5)CC4)Cc4ccccc4)CCCC3)sc2c1	0.316	72	7.9
Cc1ccc2cc(C(=O)NC3(C(=O)N[C@@H](CCCN4CCN(Cc5ccccn5)CC4)Cc4ccccc4)CCCC3)sc2c1	0.158	90	7.9
Cc1ccc2cc(C(=O)NC3(C(=O)N[C@@H](CCCN4CCN(c5ncccn5)CC4)Cc4ccccc4)CCCC3)sc2c1	0.794	63	8
Cc1ccc2cc(C(=O)NC3(C(=O)N[C@@H](CCCN4CCN(Cc5c[nH]cn5)CC4)Cc4ccccc4)CCCC3)sc2c1	–	83	8
CCS(=O)(=O)N1CCN(CCC[C@@H](Cc2ccccc2)NC(=O)C2(NC(=O)c3cc4ccc(C)cc4s3)CCCC2)CC1	0.631	77	8
CCOCCCN1CCN(CCC[C@@H](Cc2ccccc2)NC(=O)C2(NC(=O)c3cc4ccc(C)cc4s3)CCCC2)CC1	0.316	–	7.2
Cc1ccc2cc(C(=O)NC3(C(=O)N[C@@H](CCCN4CCN(Cc5cnc[nH]5)CC4)Cc4ccccc4)CCCC3)sc2c1	1	–	–
Cc1ccc2cc(C(=O)NC3(C(=O)N[C@@H](CCCN4CCN(Cc5ccsc5)CC4)Cc4ccccc4)CCCC3)sc2c1	0.158	88	8.2
Cc1ccc2cc(C(=O)NC3(C(=O)N[C@@H](CCC(=O)N4CCN(C5CCOCC5)CC4)Cc4ccccc4)CCCC3)sc2c1	0.0794	99	8.2
Cc1ccc2cc(C(=O)NC3(C(=O)N[C@@H](COCCC4CCN(CC5CCOCC5)CC4)Cc4ccccc4)CCCC3)sc2c1	–	–	6.9
Cc1ccc2cc(C(=O)NC3(C(=O)N[C@@H](CCCN4CCC(N(C)C5CCOCC5)CC4)Cc4ccccc4)CCCC3)sc2c1	1.26	–	7.8
Cc1ccc2cc(C(=O)NC3(C(=O)N[C@@H](CCCC4CCN(CC5CCOCC5)CC4)Cc4ccccc4)CCCC3)sc2c1	–	67	7.9
Cc1ccc2cc(C(=O)NC3(C(=O)N[C@@H](CCN4CCN(CC5CCOCC5)CC4)Cc4ccccc4)CCCC3)sc2c1	15.8	–	–
Cc1ccc2cc(C(=O)NC3(C(=O)N[C@H](Cc4ccccc4)CN4CCN(CC5CCOCC5)CC4)CCCC3)sc2c1	2	–	7.6
Cc1ccc2cc(C(=O)NC3(C(=O)N[C@@H](CCCN4CCN(S(=O)(=O)N(C)C)CC4)Cc4ccccc4)CCCC3)sc2c1	0.316	80	7.9
Cc1ccc2cc(C(=O)NC3(C(=O)N[C@@H](CCCN4CCN(S(N)(=O)=O)CC4)Cc4ccccc4)CCCC3)sc2c1	0.631	62	7.8
Cc1ccc2cc(C(=O)NC3(C(=O)N[C@@H](CCCN4CCC(CN5CCOCC5)CC4)Cc4ccccc4)CCCC3)sc2c1	1	62	7.8
Cc1ccc2cc(C(=O)NC3(C(=O)N[C@@H](CCCN4CCN(S(=O)(=O)C(C)C)CC4)Cc4ccccc4)CCCC3)sc2c1	0.501	85	7.9
Cc1ccc2cc(C(=O)NC3(C(=O)N[C@@H](CCCN4CCC(C(=O)N5CCOCC5)CC4)Cc4ccccc4)CCCC3)sc2c1	0.794	81	7.8
Cc1ccc2cc(C(=O)NC3(C(=O)N[C@@H](CCCN4CCC(CCO)CC4)Cc4ccccc4)CCCC3)sc2c1	2	47	8.1
Cc1ccc2cc(C(=O)NC3(C(=O)N[C@@H](CCC(=O)N4CCC(N5CCOCC5)CC4)Cc4ccccc4)CCCC3)sc2c1	2	–	7.8

Compound	Ki (Substance-K receptor) [nM]	Imax (Cavia porcellus) [%]	pKb [1]
Cc1ccc2cc(C(=O)NC3(C(=O)N[C@@H](CCC(=O)N4CCC(N(C)C5CCOCC5)CC4)Cc4ccccc4)CCCC3)sc2c1	0.316	90	7.8
Cc1ccc2cc(C(=O)NC3(C(=O)N[C@@H](CCCN4CCN(c5ccccn5)CC4)Cc4ccccc4)CCCC3)sc2c1	0.631	76	7.8
Cc1ccc2cc(C(=O)NC3(C(=O)N[C@@H](CCCN4CCN(Cc5cccs5)CC4)Cc4ccccc4)CCCC3)sc2c1	0.158	83	7.7
Cc1ccc2cc(C(=O)NC3(C(=O)N[C@@H](CCCN4CCN(Cc5ccoc5)CC4)Cc4ccccc4)CCCC3)sc2c1	0.158	67	8.2
Cc1ccc2cc(C(=O)NC3(C(=O)N[C@@H](CCCN4CCN(C(=O)c5cccn5C)CC4)Cc4ccccc4)CCCC3)sc2c1	0.398	100	8.2
Cc1ccc2cc(C(=O)NC3(C(=O)N[C@@H](CCCN4CCN(Cc5ccncc5)CC4)Cc4ccccc4)CCCC3)sc2c1	0.251	86	8.4
O=C(NC1(C(=O)N[C@@H](CCCN2CCN(CC3CCOCC3)CC2)Cc2ccccc2)CCCC1)c1cc2ccccc2s1	0.251	82	8.2
Cc1ccc2cc(C(=O)NC3(C(=O)N[C@@H](CCCN4CCN(C(=O)N5CCOCC5)CC4)Cc4ccccc4)CCCC3)sc2c1	0.398	85	8.3
Cc1ccc2cc(C(=O)NC3(C(=O)N[C@@H](CCCN4CCN(C=O)CC4)Cc4ccccc4)CCCC3)sc2c1	2	–	7.8
Cc1ccc2cc(C(=O)NC3(C(=O)N[C@@H](COCC4CCN(CC5CCOCC5)CC4)Cc4ccccc4)CCCC3)sc2c1	0.631	46	7.6
Cc1ccc2cc(C(=O)NC3(C(=O)N[C@@H](CCCN4CCN(Cc5cccnc5)CC4)Cc4ccccc4)CCCC3)sc2c1	0.316	84	8.2
Cl.N[C@@H](CCC(=O)N1CCN(CC2CCOCC2)CC1)Cc1ccccc1	0.0794	99	7.9
CC/N=C(\N1CCOCC1)N1CCN(CCC[C@@H](Cc2ccccc2)NC(=O)C2(NC(=O)c3cc4ccc(C)cc4s3)CCCC2)CC1	0.794	–	8
Cc1ccc2cc(C(=O)NC3(C(=O)N[C@@H](/C=C/CN4CCN(CC5CCOCC5)CC4)Cc4ccccc4)CCCC3)sc2c1	0.501	72	8.2
Cc1ccc2oc(C(=O)NC3(C(=O)N[C@@H](CCCN4CCN(CC5CCOCC5)CC4)Cc4ccccc4)CCCC3)cc2c1	0.398	100	8.7
Cc1ccc2cc(C(=O)NC3(C(=O)N[C@@H](CCCN4CCN(Cc5ccc(F)cc5)CC4)Cc4ccccc4)CCCC3)sc2c1	0.126	66	8.2
CO/N=C(\N1CCOCC1)N1CCN(CCC[C@@H](Cc2ccccc2)NC(=O)C2(NC(=O)c3cc4ccc(C)cc4s3)CCCC2)CC1	–	100	–
Cc1ccc2cc(C(=O)NC3(C(=O)N[C@@H](CCCN4CCN(C(=O)C5CCOCC5)CC4)Cc4ccccc4)CCCC3)sc2c1	–	97	8.1
Cc1ccc2cc(C(=O)NC3(C(=O)N[C@H](CCCN4CCN(CC5CCOCC5)CC4)Cc4ccccc4)CCCC3)sc2c1	0.631	–	7.7
Cc1ccc2cc(C(=O)NC3(C(=O)N[C@@H](CCCN4CCC(N5CCOCC5)CC4)Cc4ccccc4)CCCC3)sc2c1	0.501	–	7.8

— ChEMBL document CHEMBL1155466, “Structure-activity relationships of 6-methyl-benzo[b]thiophene-2-carboxylic acid (1-[(S)-1-benzyl-4-[4-(tetrahydropyran-4-ylmethyl)piperazin-1-yl]butylcarbamoyl]cyclopentyl)amide, potent antagonist of the neurokinin-2 receptor” (J Med Chem, 2010)
